Measured values published in patent US9510592B2, “Pesticidal compositions and processes related thereto” (Dow AgroSciences LLC, priority 2012, dated 2016).

Each compound was assayed on Beet Armyworm (Spodoptera exigua) (assay: Bioassay on Beet Armyworm (BAW), 128-well diet tray assay). Settings: percent mortality of second instar larvae, 50 μg/cm^2 on artificial diet, five to seven days, 25° C.; Table 3.
Assay type: in vivo
Method: Certain molecules disclosed in this document were tested against BAW and CEW and CL using procedures described in the following examples. In the reporting of the results, the “BAW & CEW & CL Rating Table” was used (See Table Section).
Bioassays on BAW (Spodoptera exigua)
Bioassays on BAW were conducted using a 128-well diet tray assay. one to five second instar BAW larvae were placed in each well (3 mL) of the diet tray that had been previously filled with 1 mL of artificial diet to which 50 μg/cm^2 of the test compound (dissolved in 50 μL of 90:10 acetone-water mixture) had been applied (to each of eight wells) and then allowed to dry. Trays were covered with a clear self-adhesive cover, and held at 25° C., 14:10 light-dark for five to seven days. Percent mortality was recorded for the larvae in each well; activity in the eight wells was then averaged. The results are indicated in the table entitled “Table 3: Assay Results” (See Table Section).

Structure (SMILES) | BAW Rating
Cc1cc(/C=C/C(c2cc(Cl)cc(Cl)c2)C(F)(F)F)ccc1C(=O)NCc1cnccn1 (centres unmarked) [AC43] | A (50-100)
O=C(NCc1ccc(Cl)nc1)c1ccc(/C=C/C(c2cc(Cl)c(Cl)c(Cl)c2)C(F)(F)F)cc1Cl (centres unmarked) [AC28] | A (50-100)
Cc1cc(/C=C/C(c2cc(Cl)cc(Cl)c2)C(F)(F)F)cc(C#N)c1-n1cncn1 (centres unmarked) [DC44] | A (50-100)
O=C(NCc1ccc(Cl)nc1)c1ccc(/C=C/C(c2cc(Cl)c(F)c(Cl)c2)C(F)(F)F)cc1F (centres unmarked) [AC65] | A (50-100)
O=C(CC(F)(F)F)NCc1ccc(/C=C/C(c2cc(Cl)c(Cl)c(Cl)c2)C(F)(F)F)cc1Br (centres unmarked) [CC25] | A (50-100)
Cc1cc(/C=C/C(c2cc(Cl)cc(Cl)c2)C(F)(F)F)ccc1C(=O)NCC1CCCO1 (centres unmarked) [AC118] | A (50-100)
Cc1cc(/C=C/C(c2cc(Cl)c(F)c(Cl)c2)C(F)(F)F)ccc1C(=O)NCc1cc(Cl)ccn1 (centres unmarked) [AC77] | A (50-100)
Cc1cc(/C=C/C(c2cc(Cl)c(Cl)c(Cl)c2)C(F)(F)F)cc(C#N)c1-n1cncn1 (centres unmarked) [DC45] | A (50-100)
FC(F)(F)C(/C=C/c1ccc(-n2cncn2)cc1Cl)c1cc(Cl)c(Cl)c(Cl)c1 (centres unmarked) [DC66] | A (50-100)
O=C(NCc1ccc(/C=C/C(c2ccc(Cl)c(Cl)c2)C(F)(F)F)cc1Cl)C1CC1 (centres unmarked) [CC17] | A (50-100)
O=C(NCC(=S)NCC(F)(F)F)c1ccc(/C=C/C(c2cc(Cl)c(Cl)c(Cl)c2)C(F)(F)F)cc1Br (centres unmarked) [AC92, (E)-2-Bromo-N-(2-thioxo-2-((2,2,2-trifluoroethyl)amino)ethyl)-4-(4,4,4-trifluoro-3-(3,4,5-trichlorophenyl)but-1-en-1-yl)benzamide] | A (50-100)
O=C(NC1CCCc2cc(/C=C/C(c3cc(Cl)c(Cl)c(Cl)c3)C(F)(F)F)ccc21)C1CC1 (centres unmarked) [BC7] | A (50-100)
Cc1cc(/C=C/C(c2cc(Cl)cc(Cl)c2)C(F)(F)F)ccc1C(=O)NCC(=O)N(C)CC(F)(F)F (centres unmarked) [AC51] | A (50-100)
N#Cc1cc(/C=C/C(c2cc(Cl)cc(C(F)(F)F)c2)C(F)(F)F)ccc1-n1cncn1 (centres unmarked) [DC33] | A (50-100)
O=C(CC(F)(F)F)NCc1ccc(/C=C/C(c2cc(Cl)c(Cl)c(Cl)c2)C(F)(F)F)cc1F (centres unmarked) [CC27] | A (50-100)
N#CCN1CCC(NC(=O)c2ccc(/C=C/C(c3cc(Cl)c(Cl)c(Cl)c3)C(F)(F)F)cc2Br)CC1 (centres unmarked) [AC107] | B (More than 0-Less than 50)
O=C(NC1CSC1)c1ccc(/C=C/C(c2cc(Cl)c(Cl)c(Cl)c2)C(F)(F)F)cc1Cl (centres unmarked) [AC29] | A (50-100)
O=C(NCc1ccc(Cl)nc1)c1ccc(/C=C/C(c2cc(Cl)c(Cl)c(Cl)c2)C(F)(F)F)cc1Br (centres unmarked) [AC31] | A (50-100)
CN1CCC(NC(=O)c2ccc(/C=C/C(c3cc(Cl)c(Cl)c(Cl)c3)C(F)(F)F)cc2Br)CC1 (centres unmarked) [AC106, (E)-2-Bromo-N-(1-methylpiperidin-4-yl)-4-(4,4,4-trifluoro-3-(3,4,5-trichlorophenyl)but-1-en-1-yl)benzamide] | A (50-100)
Cc1cc(/C=C/C(c2cc(Cl)cc(Cl)c2)C(F)(F)F)ccc1C(=S)NCc1ccc(Cl)nc1 (centres unmarked) [AC115, (E)-N-((6-Chloropyridin-3-yl)methyl)-4-(3-(3,5-dichlorophenyl)-4,4,4-trifluorobut-1-en-1-yl)-2-methylbenzothioamide] | A (50-100)
CONC(=O)CNC(=O)c1ccc(/C=C/C(c2cc(Cl)c(Cl)c(Cl)c2)C(F)(F)F)cc1Br (centres unmarked) [AC110] | A (50-100)
O=C(NCCc1ccc(Cl)nc1)c1ccc(/C=C/C(c2cc(Cl)c(Cl)c(Cl)c2)C(F)(F)F)cc1Br (centres unmarked) [AC113] | B (More than 0-Less than 50)
Cc1cc(/C=C/C(c2cc(Cl)cc(Cl)c2)C(F)(F)F)ccc1C(=O)NCc1ccccn1 (centres unmarked) [AC12] | A (50-100)
O=C(NCc1ccc(/C=C/C(c2cc(Cl)c(Cl)c(Cl)c2)C(F)(F)F)cc1)C1CC1 (centres unmarked) [CC5] | A (50-100)
O=C(NCc1ccc(/C=C/C(c2cc(Cl)c(Cl)c(Cl)c2)C(F)(F)F)cc1C(F)(F)F)c1cccnc1 (centres unmarked) [CC23] | A (50-100)
N#Cc1cc(/C=C/C(c2cc(Cl)c(Cl)c(Cl)c2)C(F)(F)F)ccc1-n1cnc(NC(=O)C2CC2)n1 (centres unmarked) [DC43, (E)-N-(1-(2-Cyano-4-(4,4,4-trifluoro-3-(3,4,5-trichlorophenyl)but-1-en-1-yl)phenyl)-1H-1,2,4-triazol-3-yl)cyclopropanecarboxamide] | A (50-100)
Cc1cc(/C=C\C(c2cc(Cl)cc(Cl)c2)C(F)(F)F)ccc1C(=O)NCC(=O)NC1CC1 (centres unmarked) [AC93] | A (50-100)

Structure (SMILES) | BAW Rating
Cc1cc(C)cc(C(/C=C/c2ccc(-n3cncn3)cc2)C(F)(F)F)c1 (centres unmarked) [DC11] | A (50-100)
COc1c(Cl)cc(C(/C=C/c2ccc(-n3cncn3)cc2)C(F)(F)F)cc1Cl (centres unmarked) [DC20] | A (50-100)
CCNC(=O)NCc1ccc(/C=C/C(c2cc(Cl)cc(Cl)c2)C(F)(F)F)cc1Cl (centres unmarked) [CC31, (E)-1-(2-Chloro-4-(3-(3,5-dichlorophenyl)-4,4,4-trifluorobut-1-en-1-yl)benzyl)-3-ethylurea] | B (More than 0-Less than 50)
FC(F)(F)C(/C=C/c1ccc(-n2cncn2)cc1)c1cc(Cl)cc(Cl)c1 (centres unmarked) [DC1, (E)-1-(4-(3-(3,5-Dichlorophenyl)-4,4,4-trifluorobut-1-en-1-yl)phenyl)-1H-1,2,4-triazole] | A (50-100)
O=C(NC1CCN(C2COC2)CC1)c1ccc(/C=C/C(c2cc(Cl)c(Cl)c(Cl)c2)C(F)(F)F)cc1Br (centres unmarked) [AC108, (E)-2-Bromo-N-(1-(oxetan-3-yl)piperidin-4-yl)-4-(4,4,4-trifluoro-3-(3,4,5-trichlorophenyl)but-1-en-1-yl)benzamide] | B (More than 0-Less than 50)
Cc1cc(/C=C/C(c2cc(Cl)cc(Cl)c2)C(F)(F)F)ccc1C(=O)NCc1nccn1C (centres unmarked) [AC50] | A (50-100)
COc1c(Cl)cc(C(/C=C/c2ccc(-n3cncn3)c(C#N)c2)C(F)(F)F)cc1Cl (centres unmarked) [DC34] | A (50-100)
O=C(NC1CS(=O)(=O)C1)c1ccc(/C=C/C(c2cc(Cl)c(Cl)c(Cl)c2)C(F)(F)F)cc1C(F)(F)F (centres unmarked) [AC35] | A (50-100)
Cc1cc(/C=C/C(c2cc(Cl)cc(Cl)c2)C(F)(F)F)ccc1C(=O)NCc1ccoc1 (centres unmarked) [AC20] | A (50-100)
O=C(NC1CS(=O)(=O)C1)c1ccc(/C=C/C(c2cc(Cl)c(Cl)c(Cl)c2)C(F)(F)F)cc1Br (centres unmarked) [AC33] | A (50-100)
CCc1cc(/C=C/C(c2cc(Cl)c(F)c(Cl)c2)C(F)(F)F)ccc1C(=O)NC1CS(=O)(=O)C1 (centres unmarked) [AC86] | A (50-100)
Cc1cc(/C=C/C(c2cc(Cl)cc(Cl)c2)C(F)(F)F)ccc1C(=O)NCc1ccccc1F (centres unmarked) [AC9] | A (50-100)
O=C(NNc1ccc(/C=C/C(c2cc(Cl)c(Cl)c(Cl)c2)C(F)(F)F)cc1)C1CC1 (centres unmarked) [CC50, (E)-N′-(4-(4,4,4-Trifluoro-3-(3,4,5-trichlorophenyl)but-1-en-1-yl)phenyl)cyclopropanecarbohydrazide] | A (50-100)
Cc1cc(/C=C/C(c2cc(Cl)cc(Cl)c2)C(F)(F)F)ccc1C(=O)NCc1nc2ccccc2s1 (centres unmarked) [AC42] | A (50-100)
O=C(NC1CSC1)c1ccc(/C=C/C(c2cc(Cl)c(F)c(Cl)c2)C(F)(F)F)cc1F (centres unmarked) [AC67] | A (50-100)
CC(=O)Nc1ncn(-c2ccc(/C=C/C(c3cc(Cl)cc(Cl)c3)C(F)(F)F)cc2C#N)n1 (centres unmarked) [DC39] | A (50-100)
N#Cc1cc(/C=C/C(c2cc(Cl)c(Cl)c(Cl)c2)C(F)(F)F)ccc1-n1cnc(N(C(=O)C2CC2)C(=O)C2CC2)n1 (centres unmarked) [DC42, (E)-N-(1-(2-Cyano-4-(4,4,4-trifluoro-3-(3,4,5-trichlorophenyl)but-1-en-1-yl)phenyl)-1H-1,2,4-triazol-3-yl)-N-(cyclopropanecarbonyl)cyclopropanecarboxamide] | A (50-100)
CCc1cc(/C=C/C(c2cc(Cl)c(F)c(Cl)c2)C(F)(F)F)ccc1C(=O)NCC(=O)NCC(F)(F)F (centres unmarked) [AC80] | A (50-100)
Cc1cc(/C=C/C(c2cc(Cl)c(Cl)c(Cl)c2)C(F)(F)F)ccc1C(=O)NCC(=O)NCC(F)(F)F (centres unmarked) [AC78] | A (50-100)
O=C(NC1CSC1)c1ccc(/C=C/C(c2cc(Cl)c(Cl)c(Cl)c2)C(F)(F)F)cc1Br (centres unmarked) [AC32] | A (50-100)
O=C(NCc1ccc(C(F)(F)F)nc1)c1ccc(/C=C/C(c2cc(Cl)c(Cl)c(Cl)c2)C(F)(F)F)cc1Br (centres unmarked) [AC75] | A (50-100)
FC(F)(F)C(/C=C/c1ccc(-n2cncn2)cc1)c1ccc(Cl)cc1 (centres unmarked) [DC4] | A (50-100)
O=C(CNC(=S)c1ccc(/C=C/C(c2cc(Cl)c(Cl)c(Cl)c2)C(F)(F)F)cc1Br)NCC(F)(F)F (centres unmarked) [AC91, (E)-2-(2-Bromo-4-(4,4,4-trifluoro-3-(3,4,5-trichlorophenyl)but-1-en-1-yl)phenylthioamido)-N-(2,2,2-trifluoroethyl)acetamide] | A (50-100)
O=C(CNC(=O)c1ccc(/C=C/C(c2ccc(F)c(Cl)c2)C(F)(F)F)cc1Br)NCC(F)(F)F (centres unmarked) [AC99] | A (50-100)
O=C(NC1CCNCC1)c1ccc(/C=C/C(c2cc(Cl)c(Cl)c(Cl)c2)C(F)(F)F)cc1Br (centres unmarked) [AC114, (E)-2-Bromo-N-(piperidin-4-yl)-4-(4,4,4-trifluoro-3-(3,4,5-trichlorophenyl)but-1-en-1-yl)benzamide] | A (50-100)
CCNC(=O)NCc1ccc(/C=C/C(c2cc(Cl)c(Cl)c(Cl)c2)C(F)(F)F)cc1C(F)(F)F (centres unmarked) [CC32] | A (50-100)
